Reference: US20090062120A1, “Agrochemical Composition” (priority 2005, published 2009)

How the values were obtained:
[1] = format: physicochemical; settings: for External appearance of dilution [5% in water] / Crystal formation in dilution [5% in water; 24 hours, 30° C.] / External appearance of dilution [5% in water; 24 hours, 30° C.] / External appearance of formulation [25° C.; on day of preparation] / External appearance of formulation [after 48 hours at 0° C.]: 2,4-D isopropylamine salt 300 g/l; for External appearance of dilution [5% in water] / Crystal formation in dilution [5% in water; 24 hours, 30° C.] / External appearance of dilution [5% in water; 24 hours, 30° C.]: solvent 5% by volume; for External appearance of dilution [5% in water]: 5% (v/v) dilution in water, 500 ppm CaCO3; for Crystal formation in dilution [5% in water; 24 hours, 30° C.] / External appearance of dilution [5% in water; 24 hours, 30° C.]: 5% dilution in water; for External appearance of formulation [25° C.; on day of preparation] / External appearance of formulation [after 48 hours at 0° C.]: solvent addition 5% by volume
Excerpt: In the form of its amine salts, 2,4-dichlorophenoxyacetic acid tends to crystallize out of concentrated solutions. It is state of the art to use an approximately 5% addition of NMP in order to prevent crystallization. In the present example the isopropylamine salt of 2,4-dichlorophenoxyacetic acid was used, 2,4-D IPA for short.
Concentrated aqueous solutions of 2,4-D in isopropylamine salt form (350 g/l) were admixed with quantities of demineralized water and of the corresponding solvent addition such that the concentration of 2,4-D isopropylamine salt was 300 g/l and that of the solvent under test was 5% v/v. Then the external appearance, instantaneously (see column 2 of Table 5) and after storage at 0° C. […] Particular emphasis was placed on any crystal formation.

[2] = Solubilities of active agrochemical substances in acetylcaprolactam
[3] = cited from earlier work
[4] = Dissolution of tebuconazole in standard aromatic solvents alone; format: physicochemical; settings: exclusive use of Solvesso 150 or Solvesso 200, without acetylcaprolactam; 250 g/l
Excerpt: A corresponding formulation using these solvents alone, therefore, cannot be prepared.

SMILES: CCCCCCCCCC(=O)N(C)C [Genagen 4296, N,N-dimethylcapramide]
- External appearance of dilution [5% in water] [1]: turbid
- Crystal formation in dilution [5% in water; 24 hours, 30° C.] [1]: <1%
- External appearance of dilution [5% in water; 24 hours, 30° C.] [1]: sample separated,
- External appearance of formulation [25° C.; on day of preparation] [1]: clear solution
- External appearance of formulation [after 48 hours at 0° C.] [1]: clear solution

SMILES: COC(=O)Nc1cccc(OC(=O)Nc2cccc(C)c2)c1 [phenmedipham]
- Solubility (% by wt.) at 25° C. [2]: 15-20 % by wt.

SMILES: CCC(CC)Nc1c([N+](=O)[O-])cc(C)c(C)c1[N+](=O)[O-] [pendimethalin, N-(1-ethylpropyl)-3,4-dimethyl-2,6-dinitrophenylamine]
- Solubility (% by wt.) at 25° C. [2]: 60-65 % by wt.

SMILES: O=CNC(N1CCN(C(NC=O)C(Cl)(Cl)Cl)CC1)C(Cl)(Cl)Cl (stereo not drawn) [triforine, N,N′-[1,4-piperazinediylbis(2,2,2-trichloroethylidene)]bis-formamide]
- Solubility (% by wt.) at 25° C. [2]: 15-20 % by wt.

SMILES: COCCOCCOCCOCCOC [Tetraethylene glycol dimethyl ether]
- External appearance of dilution [5% in water] [1]: clear
- Crystal formation in dilution [5% in water; 24 hours, 30° C.] [1]: <1%
- External appearance of dilution [5% in water; 24 hours, 30° C.] [1]: clear solution,
- External appearance of formulation [25° C.; on day of preparation] [1]: clear solution
- External appearance of formulation [after 48 hours at 0° C.] [1]: clear solution

SMILES: COCCOCCOCCOC [Triethylene glycol dimethyl ether]
- External appearance of dilution [5% in water] [1]: clear
- Crystal formation in dilution [5% in water; 24 hours, 30° C.] [1]: >1%
- External appearance of dilution [5% in water; 24 hours, 30° C.] [1]: clear solution,
- External appearance of formulation [25° C.; on day of preparation] [1]: clear solution
- External appearance of formulation [after 48 hours at 0° C.] [1]: clear solution

SMILES: CC(=O)N1CCCCCC1=O [Peractive LAC, acetylcaprolactam]
- Behavior compared with NMP [1]: closest to NMP
- External appearance of dilution [5% in water] [1]: clear
- Crystal formation in dilution [5% in water; 24 hours, 30° C.] [1]: no crystals
- External appearance of dilution [5% in water; 24 hours, 30° C.] [1]: clear solution,
- External appearance of formulation [25° C.; on day of preparation] [1]: clear solution
- External appearance of formulation [after 48 hours at 0° C.] [1]: clear solution

SMILES: CN1CCCC1=O [N-Methylpyrrolidone, N-Methyl-2-pyrrolidone]
- Toxic effect observed in animal experiments [3]: developmentally toxic effect
- External appearance of dilution [5% in water] [1]: clear
- Crystal formation in dilution [5% in water; 24 hours, 30° C.] [1]: no crystals
- External appearance of dilution [5% in water; 24 hours, 30° C.] [1]: clear solution,
- External appearance of formulation [25° C.; on day of preparation] [1]: clear solution
- External appearance of formulation [after 48 hours at 0° C.] [1]: clear solution

SMILES: CC(C)(C)C(O)(CCc1ccc(Cl)cc1)Cn1cncn1 (stereo not drawn) [tebuconazole, R,S-1-p-chlorophenyl-4,4-dimethyl-3-(1H-1,2,4-triazol-1-yl-methyl)pentan-3-ol]
- Dissolution at the concentration specified in Example 4 [4]: cannot be dissolved completely

SMILES: COCC(C)OCC(C)OC (stereo not drawn) [Dipropylene glycol dimethyl ether]
- External appearance of dilution [5% in water] [1]: clear
- Crystal formation in dilution [5% in water; 24 hours, 30° C.] [1]: <1%
- External appearance of dilution [5% in water; 24 hours, 30° C.] [1]: clear solution,
- External appearance of formulation [25° C.; on day of preparation] [1]: clear solution
- External appearance of formulation [after 48 hours at 0° C.] [1]: clear solution
